{"source": "patent US20260224460A1", "about": "“A PERSONAL CARE COMPOSITION” (Conopco, Inc., d/b/a UNILEVER, priority 2023, published 2026)"}
{"test_system": "Collagen1 gene expression (COL1A1) in WS1 cells", "assay": "Collagen1 (COL1A1) gene expression by real time PCR in WS1 human dermal fibroblasts", "format": "cell-based", "conditions": "Table 1, 24 hours treatment, actives in wt %, fold change vs untreated control (1.0), normalized to GAPDH, delta delta Ct", "protocol": "Experiments were carried out to study gene expression of Collagen1 with actives as shown in Table-1 individually and in combination and the data is 12ummarized therein. The methodology used to measure the gene expression is given below:\nWS1 cells (human dermal fibroblasts) were grown and maintained in high glucose DMEM (HIMEDIA cat No AL219A) supplemented with 0.03 mM Calcium chloride, 1 mM sodium pyruvate and 10% FBS (Fetal Bovine Serum) at 37° C. with 5% CO2. 80% confluent cells were trypsinized and plated in 24 well plate at a density of 50,000 cells/well. The cells were incubated at 37° C. with 5% CO2 for 24 hours. Post incubation, the cells were treated with arginine (0.005%) and varying concentration of pimelic acid, dimethyl pimelate, suberic acid. Azelaic acid (0.0001, 0.001, 0.005%). 24 hours after treatment the cells were harvested for RNA extraction. RNA was extracted using Qiagen RNA extraction kit (Cat No: 74004) as per the instructions given in the kit. After extraction of RNA, cDNA synthesis was done using iscript cDNA synthesis kit (Biorad Cat no: 1708890). […] of RNA was used for cDNA synthesis. cDNA template synthesized was used for gene expression studies.\nQuantification of collagen gene expression was carried out using real time PCR. […] of cDNA was used for setting up the reaction. The PCR reaction mix had […] each of forward and reverse primer, […] of PCR master mix (Sigma Cat No: KCQS00). Amplification was carried out at 95° C. for 30 seconds as the first step, followed by 40 cycles of qRT-PCR at 95° C. for 5 seconds, and at 60° C. for 20 seconds. mRNA expression was measured in triplicate and was normalized to GAPDH (glyceraldehyde 3-phosphate dehydrogenase) expression levels. The relative quantification was done using delta delta Ct method. The primers used in the study are COL1A1 forward primer 5′-[…]-3′, COL1A1 reverse primer 5′-[…]-3′, GAPDH forward primer 5′-[…]-3′, reverse primer 5′-[…]-3′. The relative quantification of gene expression was done after normalization using house keeping gene (GAPDH) and comparing with untreated control.\nThe fold change of gene ‘expression obtaine’ from cells treated with’ combination of test actives were compared with the gene expression obtained from cells treated with individual ingredients."}
{"smiles": "O=C(O)CCCCCCCC(=O)O", "note": "[Example E2, Azeleic acid]", "Gene expression (Collagen1)": 1.6}
{"smiles": "COC(=O)CCCCCC(=O)OC", "note": "[Example C2, Dimethyl pimelate]", "Gene expression (Collagen1)": 2.5}
{"smiles": "O=C(O)CCCCCC(=O)O", "note": "[Example B2, Pimelic acid]", "Gene expression (Collagen1)": 2.8}
{"smiles": "O=C(O)CCCCCC(=O)O", "note": "[Example B3, Pimelic acid]", "Gene expression (Collagen1)": 3.2}
{"smiles": "O=C(O)CCCCCCCC(=O)O", "note": "[Example E1, Azeleic acid]", "Gene expression (Collagen1)": 1.4}
{"smiles": "O=C(O)CCCCCC(=O)O", "note": "[Example B1, Pimelic acid]", "Gene expression (Collagen1)": 1.1}
{"smiles": "O=C(O)CCCCCCC(=O)O", "note": "[Example D3, Suberic acid]", "Gene expression (Collagen1)": 1.3}
{"smiles": "O=C(O)CCCCCCCC(=O)O", "note": "[Example E3, Azeleic acid]", "Gene expression (Collagen1)": 1.9}
{"smiles": "O=C(O)CCCCCCC(=O)O", "note": "[Example D1, Suberic acid]", "Gene expression (Collagen1)": 1.6}
{"smiles": "COC(=O)CCCCCC(=O)OC", "note": "[Example C3, Dimethyl pimelate]", "Gene expression (Collagen1)": 3.8}
{"smiles": "N=C(N)NCCCC(N)C(=O)O", "note": "(centres unmarked) [Example A, Arginine]", "Gene expression (Collagen1)": 1.9}
{"smiles": "O=C(O)CCCCCCC(=O)O", "note": "[Example D2, Suberic acid]", "Gene expression (Collagen1)": 2.9}
{"smiles": "COC(=O)CCCCCC(=O)OC", "note": "[Example C1, Dimethyl pimelate]", "Gene expression (Collagen1)": 1.2}
{"test_system": "Collagen1 gene expression (COL1A1) in WS1 cells", "assay": "Collagen1 (COL1A1) gene expression by real time PCR in WS1 human dermal fibroblasts", "format": "cell-based", "conditions": "Table 2 (lysine series), 24 hours treatment, actives in wt %, fold change vs untreated control (1.0), normalized to GAPDH"}
{"smiles": "NCCCC[C@H](N)C(=O)O", "note": "[F, Lysine]", "Gene expression (Collagen1)": 0.8}
{"smiles": "O=C(O)CCCCCC(=O)O", "note": "[Example G3, Pimelic acid]", "Gene expression (Collagen1)": 3.0}
{"smiles": "COC(=O)CCCCCC(=O)OC", "note": "[Example H3, Dimethyl pimelate]", "Gene expression (Collagen1)": 3.7}
{"smiles": "O=C(O)CCCCCCC(=O)O", "note": "[Example J1, Suberic acid]", "Gene expression (Collagen1)": 1.7}
{"smiles": "O=C(O)CCCCCCC(=O)O", "note": "[Example J2, Suberic acid]", "Gene expression (Collagen1)": 2.8}
{"smiles": "COC(=O)CCCCCC(=O)OC", "note": "[Example H1, Dimethyl pimelate]", "Gene expression (Collagen1)": 1.2}
{"smiles": "COC(=O)CCCCCC(=O)OC", "note": "[Example H2, Dimethyl pimelate]", "Gene expression (Collagen1)": 2.4}
{"smiles": "O=C(O)CCCCCC(=O)O", "note": "[Example G1, Pimelic acid]", "Gene expression (Collagen1)": 1.1}
{"smiles": "O=C(O)CCCCCC(=O)O", "note": "[Example G2, Pimelic acid]", "Gene expression (Collagen1)": 2.4}
{"smiles": "O=C(O)CCCCCCCC(=O)O", "note": "[Example K3, Azeleic acid]", "Gene expression (Collagen1)": 2.0}
{"smiles": "O=C(O)CCCCCCC(=O)O", "note": "[Example J3, Suberic acid]", "Gene expression (Collagen1)": 1.4}
{"smiles": "O=C(O)CCCCCCCC(=O)O", "note": "[Example K2, Azeleic acid]", "Gene expression (Collagen1)": 1.6}
{"smiles": "O=C(O)CCCCCCCC(=O)O", "note": "[Example K1, Azeleic acid]", "Gene expression (Collagen1)": 1.3}
{"test_system": "Collagen1 gene expression (COL1A1) in WS1 cells", "assay": "Collagen1 (COL1A1) gene expression by real time PCR in WS1 human dermal fibroblasts", "format": "cell-based", "conditions": "Table 3 (additional weight ratios 2:1, 4:1, 25:1), 24 hours treatment, actives in wt %, fold change vs untreated control (1.0), normalized to GAPDH"}
{"smiles": "O=C(O)CCCCCCCC(=O)O", "note": "[Example P1, Azelaic acid]", "Gene expression (Collagen1)": 1.7}
{"smiles": "O=C(O)CCCCCC(=O)O", "note": "[Example M2, Pimelic acid]", "Gene expression (Collagen1)": 3.9}
{"smiles": "COC(=O)CCCCCC(=O)OC", "note": "[Example N3, Dimethyl pimelate]", "Gene expression (Collagen1)": 2.5}
{"smiles": "O=C(O)CCCCCCC(=O)O", "note": "[Example O1, Suberic acid]", "Gene expression (Collagen1)": 2.7}
{"smiles": "O=C(O)CCCCCC(=O)O", "note": "[Example M3, Pimelic acid]", "Gene expression (Collagen1)": 2.7}
{"smiles": "O=C(O)CCCCCCCC(=O)O", "note": "[Example P2, Azelaic acid]", "Gene expression (Collagen1)": 2.4}
{"smiles": "O=C(O)CCCCCC(=O)O", "note": "[Example M1, Pimelic acid]", "Gene expression (Collagen1)": 3.0}
{"smiles": "COC(=O)CCCCCC(=O)OC", "note": "[Example N1, Dimethyl pimelate]", "Gene expression (Collagen1)": 2.2}
{"smiles": "O=C(O)CCCCCCC(=O)O", "note": "[Example O2, Suberic acid]", "Gene expression (Collagen1)": 3.7}
{"smiles": "O=C(O)CCCCCCC(=O)O", "note": "[Example O3, Suberic acid]", "Gene expression (Collagen1)": 2.5}
{"smiles": "N=C(N)NCCCC(N)C(=O)O", "note": "(centres unmarked) [Example L1, Arginine]", "Gene expression (Collagen1)": 1.5}
{"smiles": "COC(=O)CCCCCC(=O)OC", "note": "[Example N2, Dimethyl pimelate]", "Gene expression (Collagen1)": 3.5}
{"smiles": "O=C(O)CCCCCCCC(=O)O", "note": "[Example P3, Azelaic acid]", "Gene expression (Collagen1)": 1.6}
{"smiles": "N=C(N)NCCCC(N)C(=O)O", "note": "(centres unmarked) [Example L2, Arginine]", "Gene expression (Collagen1)": 3.3}
{"smiles": "N=C(N)NCCCC(N)C(=O)O", "note": "(centres unmarked) [Example L3, Arginine]", "Gene expression (Collagen1)": 4.4}
